Data as given in PubChem BioAssay AID1963981 (Molecular Pharmacology Branch, DTP, NCI, 2024).

The compounds below were run on 354836-022-R-J1-PDC multicell spheroid viability (assay: Anticancer human tumor 354836-022-R-J1-PDC patient-derived head and neck squamous cell carcinoma cell line growth inhibition [PI3K]). Details: second compound 3.16 µM; first compound 0.316 µM; active compounds read low.
Outline: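 Combination activity was assessed by viability in multicellular tumor spheroids carrying HUVEC and MSC components. Agents were tested with PI3K inhibitors from a Cmax-based top dose (or 10 microM) downward in half-log increments.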
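Also: spheroids exposed to agents for seven days before the viability read.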

Row | SMILES | viability, T/C [%]
1 | CCN1CCN(Cc2ccc(Nc3ncc(F)c(-c4cc(F)c5nc(C)n(C(C)C)c5c4)n3)nc2)CC1 + CC(Nc1ncnc2nc[nH]c12)c1cc2cccc(Cl)c2c(=O)n1-c1ccccc1 | 93.7
2 | CC1(C)CCC(Nc2ncc(C(F)(F)F)c(-c3c[nH]c4c(P(C)(C)=O)c(C#N)ccc34)n2)CN1 (configuration not stated) + Cc1nc(NC(=O)N2CCCC2C(N)=O)sc1-c1ccnc(C(C)(C)C(F)(F)F)c1 | 14.9

Same assay, conditions: second compound 3.16 µM; first compound 1 µM; active compounds read low

Row | SMILES | viability, T/C [%]
3 | C=CC(=O)N1CCN(c2nc(=O)n(-c3c(C)ccnc3C(C)C)c3nc(-c4c(O)cccc4F)c(F)cc23)C(C)C1 (configuration not stated) + CC(Nc1ncnc2nc[nH]c12)c1cc2cccc(Cl)c2c(=O)n1-c1ccccc1 | 115
4 | CCN1CCN(Cc2ccc(Nc3ncc(F)c(-c4cc(F)c5nc(C)n(C(C)C)c5c4)n3)nc2)CC1 + CC(Nc1ncnc2nc[nH]c12)c1cc2cccc(Cl)c2c(=O)n1-c1ccccc1 | 38.5
5 | CC1(C)CCC(Nc2ncc(C(F)(F)F)c(-c3c[nH]c4c(P(C)(C)=O)c(C#N)ccc34)n2)CN1 (configuration not stated) + Cc1nc(NC(=O)N2CCCC2C(N)=O)sc1-c1ccnc(C(C)(C)C(F)(F)F)c1 | 15.1

Same assay, conditions: second compound 3.16 µM; first compound 3.16 µM; active compounds read low

Row | SMILES | viability, T/C [%]
6 | C=CC(=O)N1CCN(c2nc(=O)n(-c3c(C)ccnc3C(C)C)c3nc(-c4c(O)cccc4F)c(F)cc23)C(C)C1 (configuration not stated) + CC(Nc1ncnc2nc[nH]c12)c1cc2cccc(Cl)c2c(=O)n1-c1ccccc1 | 115
7 | CC1(C)CCC(Nc2ncc(C(F)(F)F)c(-c3c[nH]c4c(P(C)(C)=O)c(C#N)ccc34)n2)CN1 (configuration not stated) + Cc1nc(NC(=O)N2CCCC2C(N)=O)sc1-c1ccnc(C(C)(C)C(F)(F)F)c1 | 18.4

Same assay, conditions: second compound 3.16 µM; first compound 10 µM; active compounds read low

Row | SMILES | viability, T/C [%]
8 | C=CC(=O)N1CCN(c2nc(=O)n(-c3c(C)ccnc3C(C)C)c3nc(-c4c(O)cccc4F)c(F)cc23)C(C)C1 (configuration not stated) + CC(Nc1ncnc2nc[nH]c12)c1cc2cccc(Cl)c2c(=O)n1-c1ccccc1 | 93.2
9 | CC1(C)CCC(Nc2ncc(C(F)(F)F)c(-c3c[nH]c4c(P(C)(C)=O)c(C#N)ccc34)n2)CN1 (configuration not stated) + Cc1nc(NC(=O)N2CCCC2C(N)=O)sc1-c1ccnc(C(C)(C)C(F)(F)F)c1 | 1

Same assay, conditions: second compound 10 µM; first compound 0.00316 µM; active compounds read low

Row | SMILES | viability, T/C [%]
10 | CCN1CCN(Cc2ccc(Nc3ncc(F)c(-c4cc(F)c5nc(C)n(C(C)C)c5c4)n3)nc2)CC1 + CC(Nc1ncnc2nc[nH]c12)c1cc2cccc(Cl)c2c(=O)n1-c1ccccc1 | 92.5

Same assay, conditions: second compound 10 µM; first compound 0.01 µM; active compounds read low

Row | SMILES | viability, T/C [%]
11 | CCN1CCN(Cc2ccc(Nc3ncc(F)c(-c4cc(F)c5nc(C)n(C(C)C)c5c4)n3)nc2)CC1 + CC(Nc1ncnc2nc[nH]c12)c1cc2cccc(Cl)c2c(=O)n1-c1ccccc1 | 92.8

Same assay, conditions: second compound 10 µM; first compound 0.0316 µM; active compounds read low

Row | SMILES | viability, T/C [%]
12 | C=CC(=O)N1CCN(c2nc(=O)n(-c3c(C)ccnc3C(C)C)c3nc(-c4c(O)cccc4F)c(F)cc23)C(C)C1 (configuration not stated) + CC(Nc1ncnc2nc[nH]c12)c1cc2cccc(Cl)c2c(=O)n1-c1ccccc1 | 98
13 | CCN1CCN(Cc2ccc(Nc3ncc(F)c(-c4cc(F)c5nc(C)n(C(C)C)c5c4)n3)nc2)CC1 + CC(Nc1ncnc2nc[nH]c12)c1cc2cccc(Cl)c2c(=O)n1-c1ccccc1 | 90.1
14 | CC1(C)CCC(Nc2ncc(C(F)(F)F)c(-c3c[nH]c4c(P(C)(C)=O)c(C#N)ccc34)n2)CN1 (configuration not stated) + Cc1nc(NC(=O)N2CCCC2C(N)=O)sc1-c1ccnc(C(C)(C)C(F)(F)F)c1 | 12.7

Same assay, conditions: second compound 10 µM; first compound 0.1 µM; active compounds read low

Row | SMILES | viability, T/C [%]
15 | C=CC(=O)N1CCN(c2nc(=O)n(-c3c(C)ccnc3C(C)C)c3nc(-c4c(O)cccc4F)c(F)cc23)C(C)C1 (configuration not stated) + CC(Nc1ncnc2nc[nH]c12)c1cc2cccc(Cl)c2c(=O)n1-c1ccccc1 | 89.4
16 | CCN1CCN(Cc2ccc(Nc3ncc(F)c(-c4cc(F)c5nc(C)n(C(C)C)c5c4)n3)nc2)CC1 + CC(Nc1ncnc2nc[nH]c12)c1cc2cccc(Cl)c2c(=O)n1-c1ccccc1 | 86.4
17 | CC1(C)CCC(Nc2ncc(C(F)(F)F)c(-c3c[nH]c4c(P(C)(C)=O)c(C#N)ccc34)n2)CN1 (configuration not stated) + Cc1nc(NC(=O)N2CCCC2C(N)=O)sc1-c1ccnc(C(C)(C)C(F)(F)F)c1 | 10.6

Same assay, conditions: second compound 10 µM; first compound 0.316 µM; active compounds read low

Row | SMILES | viability, T/C [%]
18 | C=CC(=O)N1CCN(c2nc(=O)n(-c3c(C)ccnc3C(C)C)c3nc(-c4c(O)cccc4F)c(F)cc23)C(C)C1 (configuration not stated) + CC(Nc1ncnc2nc[nH]c12)c1cc2cccc(Cl)c2c(=O)n1-c1ccccc1 | 90.1
19 | CCN1CCN(Cc2ccc(Nc3ncc(F)c(-c4cc(F)c5nc(C)n(C(C)C)c5c4)n3)nc2)CC1 + CC(Nc1ncnc2nc[nH]c12)c1cc2cccc(Cl)c2c(=O)n1-c1ccccc1 | 83.8
20 | CC1(C)CCC(Nc2ncc(C(F)(F)F)c(-c3c[nH]c4c(P(C)(C)=O)c(C#N)ccc34)n2)CN1 (configuration not stated) + Cc1nc(NC(=O)N2CCCC2C(N)=O)sc1-c1ccnc(C(C)(C)C(F)(F)F)c1 | 11.6

Same assay, conditions: second compound 10 µM; first compound 1 µM; active compounds read low

Row | SMILES | viability, T/C [%]
21 | C=CC(=O)N1CCN(c2nc(=O)n(-c3c(C)ccnc3C(C)C)c3nc(-c4c(O)cccc4F)c(F)cc23)C(C)C1 (configuration not stated) + CC(Nc1ncnc2nc[nH]c12)c1cc2cccc(Cl)c2c(=O)n1-c1ccccc1 | 99.2
22 | CCN1CCN(Cc2ccc(Nc3ncc(F)c(-c4cc(F)c5nc(C)n(C(C)C)c5c4)n3)nc2)CC1 + CC(Nc1ncnc2nc[nH]c12)c1cc2cccc(Cl)c2c(=O)n1-c1ccccc1 | 29.6
23 | CC1(C)CCC(Nc2ncc(C(F)(F)F)c(-c3c[nH]c4c(P(C)(C)=O)c(C#N)ccc34)n2)CN1 (configuration not stated) + Cc1nc(NC(=O)N2CCCC2C(N)=O)sc1-c1ccnc(C(C)(C)C(F)(F)F)c1 | 17.2

Same assay, conditions: second compound 10 µM; first compound 3.16 µM; active compounds read low

Row | SMILES | viability, T/C [%]
24 | C=CC(=O)N1CCN(c2nc(=O)n(-c3c(C)ccnc3C(C)C)c3nc(-c4c(O)cccc4F)c(F)cc23)C(C)C1 (configuration not stated) + CC(Nc1ncnc2nc[nH]c12)c1cc2cccc(Cl)c2c(=O)n1-c1ccccc1 | 102
25 | CC1(C)CCC(Nc2ncc(C(F)(F)F)c(-c3c[nH]c4c(P(C)(C)=O)c(C#N)ccc34)n2)CN1 (configuration not stated) + Cc1nc(NC(=O)N2CCCC2C(N)=O)sc1-c1ccnc(C(C)(C)C(F)(F)F)c1 | 12.3

Same assay, conditions: second compound 10 µM; first compound 10 µM; active compounds read low

Row | SMILES | viability, T/C [%]
26 | C=CC(=O)N1CCN(c2nc(=O)n(-c3c(C)ccnc3C(C)C)c3nc(-c4c(O)cccc4F)c(F)cc23)C(C)C1 (configuration not stated) + CC(Nc1ncnc2nc[nH]c12)c1cc2cccc(Cl)c2c(=O)n1-c1ccccc1 | 88.1
27 | CC1(C)CCC(Nc2ncc(C(F)(F)F)c(-c3c[nH]c4c(P(C)(C)=O)c(C#N)ccc34)n2)CN1 (configuration not stated) + Cc1nc(NC(=O)N2CCCC2C(N)=O)sc1-c1ccnc(C(C)(C)C(F)(F)F)c1 | 0.79
